For data set [1], the system named is SH-SY5Y cells. Kind of data set: Cell Titer Glow viability assay, SH-SY5Y cells. In kind it is cell-based, human. Particulars: 4 mg/mL, 72 hours. As to the method:
Since it has been reported that HoloTf is toxic to cells in vivo and in vitro, toxicity of various compositions containing majority ApoTf, majority HoloTf or mixtures of ApoTf+HoloTf was tested in SH-SY5Y cells. SH-SY5Y cells were treated with the indicated concentrations of 4 mg/mL Tf (as indicated in FIG. 5A), M30 or DFO for 72 hours. After 72 hours, cells were subjected to a Cell Titer Glow viability assay. Control cells, untreated cells, were set to a value of 100% viable. The average viability and standard deviations are shown for each treatment condition.

Data set [2] relates to primary human hepatocytes. In words: Cell Titer Glow viability assay, primary human hepatocytes. The data set is classed as cell-based. To be noted: 4 mg/mL, 72 hours. On the procedure: Given the anticipated safety profile of a human plasma protein, toxicity of transferrins (majority Apo, majority Holo and pd-transferrin) in NCI-H1650 and primary human hepatocyte cells was assessed. The human lung cell line, NCI-H1650, and primary human hepatocytes were treated for 72 hours with 4 mg/mL of majority ApoTf, majority HoloTf, or pd-transferrin. After 72 hours, cells were subjected to a Cell Titer Glow viability assay. Control cells, untreated cells, were set to a value of 100% viable. The average viability and standard deviations are shown in FIGS. 14A and 14B for each treatment condition.
(In general: Cellular ATP, detected with luciferase, serves as a proxy for viable cell number.)

The nature of data set [3]: Modified Bederson and General Behavioral scores in rats. In kind it is in vivo, rat. Particulars: rats intravenously treated. As to the method: In vivo neurological function was assessed by a modified Bederson score (Bederson et al., 1986b; Crumrine et al., 2011) using the following definitions:
Score 0: No apparent neurological deficits;
Score 1: Body torsion present;
Score 2: Body torsion with right side weakness;
Score 3: Body torsion, right side weakness with circling behavior; and
Score 4: Seizure Activity.
General behavioral scores of rats were developed by the CALS personnel for the purpose of monitoring recovery of animals following surgical procedures (standard CALS post-operative care). A numerical value was assigned to the predetermined behavioral observations.
Score 0: Behavior consistent with a normal naïve rat (i.e. no ipsilateral deficit);
Score 1: Bright/active/responsive; the rat spontaneously moves and explores his cage, responds to external stimuli, explores the top of the cage;
Score 2: Quiet/alert/responsive; reserved behavior but will respond to external stimulus, tends not to rear or explore the top of the cage;
Score 3: Depressed behavior: tends not to move unless prodded, quickly returns to a somnolent state, little to no interest in external stimuli;
Score 4: Unresponsive: remains in a prostrate position even when prodded; and Score 5: Seizure activity requiring euthanasia.

Another data set has as its system Glut1. In words: Glut1 mRNA expression by qPCR in SH-SY5Y cells. The data set is classed as cell-based, human. On the procedure:
(§1) The stabilization of, and increase in, HIF-1α protein typically leads to an up-regulation of HIF-related genes (increase in the transcription of genes targeted by HIF), i.e. genes that have HIF binding sites in their transcriptional regulatory elements. Two well characterized genes that are activated by HIF-1α protein are Glut1 receptor and VEGF. Therefore, in order to analyze mRNA expression changes in each of these HIF target genes SH-SY5Y cell line cells were cultured and treated with majority ApoTf or majority HoloTf at a concentration of 1 mg/mL and 4 mg/mL under normoxic (21% oxygen) or hypoxic (1% oxygen) conditions for 6 hours. As a negative controls, cells were treated with HSA (1 mg/mL or 4 mg/mL) or were left untreated. After 6 hrs, intracellular mRNA was harvested and tested for Glut1 and VEGF expression levels by qPCR. Expression results were calculated relative to the expression of the corresponding transcript seen in untreated cells. FIGS. 4A and 4B show the expression results obtained for Glut1 receptor and VEGF, respectively. Values in the figures are shown as Relative Gene Expression, with the target gene (Glut1 or VEGF) normalized for housekeeper (beta-actin) expression.
(§2) In addition, mRNA expression levels of Glut1 and VEGF in response to majority Apotransferrin and DFO or IOX2 combinations were determined. […] Where indicated, either 200 uM DFO or 1 uM IOX2 were co-treated with the HSA and majority Apotransferrin. After 6 hr treatments, intracellular mRNA was harvested and tested for Glut1 and VEGF expression levels by qPCR. Values are shown as Relative Gene Expression, with the target gene (Glut1 or VEGF) normalized for housekeeper (beta-actin) expression. Standard deviations are shown.
In general terms: Quantitative PCR measures a nucleic acid by following its amplification.

For data set [4], the system named is HIF1 alpha protein. In words: HIF1 alpha protein levels by ELISA in HRCE cells. The data set is classed as cell-based, human. To be noted: 4 mg/mL, 6 hrs, normal oxygen. The text has this:
(§3) It is well-known in the art that many small molecules used for the treatment of conditions related or provoked by hypoxia are toxic and have numerous side effects, e.g. DFO. One of the most apparent side effects of said small molecules is kidney toxicity. Therefore, in order to assess whether transferrin and/or mixtures increase HIF1 alpha levels in primary kidney cells; human primary kidney cells, both primary human renal proximal tubule epithelial (RPTEC) or cortical epithelial cells (HRCE) were obtained. Primary human renal proximal tubule epithelial (RPTEC) or primary cortical epithelial (HRCE) cells cultured in serum free media were treated with 4 mg/mL majority Apo-transferrin, majority Holo-transferrin or various mixtures of each for 6 hrs under normal oxygen levels. After 6 hrs intracellular proteins were harvested and tested for HIF1 alpha protein levels by ELISA. FIGS. 10A and 10B reveal that HIF1 alpha levels are induced with transferrin composed of mixtures of Apo-transferrin and Holo-transferrin in RPTEC and HRCE, respectively.
(An ELISA detects its analyte on a solid surface through an enzyme-linked reagent.)

Data set [5] relates to SH-SY5Y cells. Kind of data set: Protection from oligomerized Abeta 1-42 toxicity, ApoGlo caspase 3/7 activation assay. In kind it is cell-based, human. Particulars: for inherent toxicity: 4 mg/mL; for protection from Abeta induced toxicity (caspase 3/7 induction): 4 mg/mL for 24 hrs, then oligomerized Abeta1-42 for 72 hours. The text has this:
Upregulation of the HIF pathway is known to play a protective role in a number of neurodegenerative diseases, including pathologies that result in destruction of nerve cells and neurons. Such neurodegenerative diseases include Alzheimer's disease, Parkinson's disease, Huntington's disease, and Amylotrophic Lateral Sclerosis. Since treatment of SH-SY5Y upregulates HIF, treatment of cells with Apo- or Holo-transferrin should provide a protective effect on cells subjected to substances known to induce neurodegeneration. FIG. 7 highlights data assessing whether majorities of Apo- and Holo-transferrin could protect SH-SY5Y cells from the toxic effects of the known neurodegenerative toxin oligomerized Abeta 1-42 peptide (FIG. 7). SH-SY5Y neuronal cells cultured in growth media were treated with 4 mg/mL Apo-transferrin or Holo-transferrin for 24 hrs under normal oxygen levels. After 24 hrs, cells were treated with oligomerized Abeta1-42 peptide for an additional 72 hours. Following treatment with oligomerized Abeta1-42, cells were subjected to a ApoGlo caspase 3/7 activation assay. Control cells, untreated cells, were set to a normalized value of 1. The average caspase induction, relative to control cells, and standard deviations are shown for each treatment condition.

The next data set concerns VEGF. In words: VEGF mRNA expression by qPCR in SH-SY5Y cells. In kind it is cell-based, human. As to the method: as §1, §2
Data set [6] concerns HIF1 alpha protein. Kind of data set: HIF1 alpha protein levels by ELISA in RPTEC cells. In kind it is cell-based, human. Particulars: 4 mg/mL, 6 hrs, normal oxygen.
Excerpt: as §3

Setting [7] is: 4 mg/mL, co-treated with 200 uM DFO or 1 uM IOX2, 6 hr, normal oxygen.
Setting [8] is: hypoxic (1% oxygen), 6 hours, 1 mg/mL and 4 mg/mL.
Where [9] appears, read: normoxic (21% oxygen), 6 hours, 1 mg/mL and 4 mg/mL.

The values that follow come from patent USRE50230E1, “Method of treatment of hypoxia inducible factor (HIF)-related conditions” (GRIFOLS WORLDWIDE OPERATIONS LIMITED, priority 2014, dated 2024).

For the substance “majority ApoTf: plasma derived transferrin composition, majority iron-free apo-transferrin (98% ApoTf, 2% HoloTf)”, the “toxicity (cell viability)” value in the data set with SH-SY5Y cells [1] is recorded as “No toxic effects”; in data set [2], “no toxicity”. For the same substance, the “modified Bederson and General Behavioral scores” value in data set [3] is “neither compositions of majority ApoTf nor majority HoloTf showed significant differences”. Moreover, the “Glut1 mRNA levels in combination with small molecule activators of the HIF pathway” value with Glut1 (setting [7]) was “increase synergistically and additively”. Moreover, the “Glut1 mRNA expression relative to HSA controls” value with Glut1 (setting [8]) is given as “significantly increased”. In addition, the HIF1 alpha levels entry in the data set with HIF1 alpha protein [4] and with HIF1 alpha protein [6] was “Induce” in each case. For the same substance, the inherent toxicity result with SH-SY5Y cells [5] is listed as “lack of inherent toxicity”. For the same substance, the “protection from Abeta induced toxicity (caspase 3/7 induction)” value with SH-SY5Y cells [5] is listed as “protect SH-SY5Y cells from Abeta induced toxicity”. Also, the “VEGF mRNA levels in combination with small molecule activators of the HIF pathway” value with VEGF (setting [7]) was “increase synergistically and additively”. The “VEGF mRNA expression relative to HSA controls” value with VEGF (setting [8]) is on record as “significantly increased”.
As for “majority HoloTf: plasma derived transferrin composition, majority diferric holo-transferrin (30% ApoTf, 70% HoloTf)”, the “toxicity (cell viability)” value in the data set with SH-SY5Y cells [1] is listed as “no toxicity or detrimental effects”; in data set [2] it was “no toxicity”. Moreover, in data set [3], the “modified Bederson and General Behavioral scores” value is listed as “no detrimental effects”. Also, the “Glut1 mRNA expression” value in the data set on Glut1 (setting [9]) was “increased expression”. In addition, the HIF1 alpha levels result with HIF1 alpha protein [4] and with HIF1 alpha protein [6] was “Induce” throughout. Moreover, the inherent toxicity result with SH-SY5Y cells [5] is listed as “lack of inherent toxicity”. For the same substance, the “protection from Abeta induced toxicity (caspase 3/7 induction)” value in the data set on SH-SY5Y cells [5] is “protect SH-SY5Y cells from Abeta induced toxicity”. Further, in the data set with VEGF (setting [9]), the “VEGF mRNA expression” value is listed as “increased expression of only Glut1”.
